Results as given in patent US20030224983A1, “Stimulation of beta cell proliferation” (priority 1998, published 2003).

Tests used:
[1] = system: beta cells (insulin positive cells in pancreatic islet cells from newborn rats); assay: beta cell proliferation in vitro, BrdU incorporation in insulin positive islet cells; format: cell-based, rat; details: for number of labelled beta cells: then 10 μM BrdU for 90 min, absence of hormones 0.6%
Description: Diabetes is characterized by insufficiency of the pancreatic beta cells to maintain normoglycemia. In type 1 diabetes (IDDM) this is due to destruction of the beta cells by an autoimmune process whereas in type 2 diabetes (NIDDM) it is due to a combination of beta cell deficiency and peripheral insulin resistance. […] However in diabetic patients the number of beta cells is reduced and it is therefore pertinent not only to improve the function of the beta cells by therapeutical means but also to increase the number of beta cells. […] In our efforts to identify beta cell growth factors we discovered that GLP-1 indeed could stimulate beta cell proliferation in vitro. The proliferation was measured as incorporation of the thymidine analogue 5-bromo-2-deoxyuridine into DNA in insulin positive cells in pancreatic islet cells from newborn rats. […] This may have important implication for the treatment and/or prevention of diabetes.
The protocol was a slight modification of the procedure described by Billestrup and Nielsen (Billestrup N, Nielsen J H: The stimulatory effect of growth hormone, prolactin, and placental lactogen on beta cell proliferation is not mediated by insulin-like growth factor-I. Endocrinology 1991; 129:883-888.). Pancreatic islets were isolated from newborn rats by the collagenase method and cultured for 2-5 days before use. 2000 islets were transfered to 15 ml plastic tubes and washed once with Ca/Mg-free Hank's balanced salt solution. 500 μl cold trypsin solution (0.05% trypsin, 0.53 mM EDTA in Ca/Mg-free Hank's solution). The islets were dispersed by aspiration with a pipette. 5 ml culture medium RPMI 1640 with 2% human serum was added. 75,000 islet cells were then placed in tissue culture flasks previously coated with ECL cell attachment matrix (Upstate Biotechnology) with 2 ml culture medium with 1 μg/ml human growth hormone (hGH) (Norditropin, Novo Nordisk). After 7 days in culture at 37C the medium was replaced with culture medium without hGH or with addition of 100 nM GLP-1, 5 μM Arg^34, Lys^26(N-ε-(γ-Glu(N-α-hexadecanoyl)))-GLP-1(7-37) or 200 ng/ml hGH. After 2 days in culture 10 μM 5-bromo-2-deoxyuridine (BrdU) was added and after 90 min the medium was removed and the cells fixed in 1% paraformaldehyde in 0.1 M phosphate buffer. The cells were then stained with antibodies to BrdU and insulin as described (Billestrup and Nielsen, 1991). The number of labelled beta cells in the absence of hormones was 0.6% and in the presence of hGH 3.5%. In the presence of GLP-1 the number was 1.7% and in the presence of Arg^34, Lys^26(N-ε-(γ-Glu(N-α-hexadecanoyl)))-GLP-1(7-37) 1.4%.

[2] = system: male Zucker Diabetic Fatty fa/fa (ZDF) rat; assay: blood glucose during a normal 24-hour feeding schedule in ZDF rats; format: in vivo
Description: (§1) The male Zucker Diabetic Fatty fa/fa (ZDF) rat is a model of Type 2 diabetes. The rats are insulin resistant but normoglycemic from birth and they develop diabetes from about week 7 to week 10 of age. During the transitional period, the animals go through a state of impaired glucose tolerance. Although the animals are hyperinsulinemic before diabetes onset and during the early stages of diabetes, they later lose glucose-stimulated insulin secretion and finally become almost completely insulinopenic.
(§2) We have studied the effects of Arg^34, Lys^26(N-ε-(γ-Glu(N-α-hexadecanoyl)))-GLP-1(7-37) therapy during a period of time when the animals would normally progress from having impaired glucose tolerance to having overt Type 2 diabetes. Three groups of male ZDF rats (Genetic Models Inc, Indianapolis, Ind., U.S.A.) were studied and dosed subcutaneously bi-daily with either vehicle (group A), 30 (group B) or 150 μg/kg (group C) of Arg^34, Lys^26(N-ε-(γ-Glu(N-α-hexadecanoyl)))-GLP-1(7-37), n=6 per group. Animals were between 7 and 8 weeks old when dosing was initiated, and fed glucose levels were not different between the groups before dosing began. […] After 36 days of dosing, an oral glucose tolerance test was performed in the animals after an 11-hour fast. One g/kg of glucose was administered by oral gavage and subsequent measurements of blood glucose and plasma insulin were made.

beta-cells of ZDF rats [3] = assay: relative mass of islet beta-cells, point counting stereologic techniques; format: in vivo, rat
Description: (§3) The rat experiment described in example 2 were examined for effects of Arg^34, Lys^26(N-ε-(γ-Glu(N-α-hexadecanoyl)))-GLP-1(7-37) (named GLP-1 in FIG. 3 and 4) on beta-cell growth and neogenesis.
Neighbor sections were stained for insulin and the combination of glucagon-somatostatin-pancreatic polypeptide for the measurement of the relative mass of islet beta-cells and nonbeta-cells. The beta-cells were stained for insulin as described above. The nonbeta-cells were stained with a mixture of monoclonal mouse anti-glucagon+rabbit anti-somatostatin+rabbit anti-pancreatic polypeptide, detected by biotinylated swine anti-multible Ig's, avidin peroxidase, and developed with DAB and CuSO4 to give a dark brown stain. The volume fractions of beta- and nonbeta-cells were estimated by point counting stereologic techniques.

[4] = system: male Zucker Diabetic Fatty fa/fa (ZDF) rat; assay: oral glucose tolerance test in ZDF rats; format: in vivo; details: group C, 150 μg/kg bi-daily, after 36 days; 11-hour fast, 1 g/kg glucose by oral gavage; total AUC, p<0.0002 by ANOVA
Description: as §1, §2

beta-cells of ZDF rats [5] = assay: beta-cell proliferation rate in vivo, BrDU and insulin double staining of pancreas sections; set-up: species or system rat; details: 30 and 150 μg/kg bi-daily, 100 mg BrDU/kg i.p. six hours before sacrifice
Protocol: as §3
Bromodeoxyuridine (BrDU) is incorporated in newly synthesized DNA and thus will label replicating cells. Six hours before sacrifice the rats were given an injection of 100 mg BrDU/kg intraperitoneally. After sacrifice the pancreata were fixed in 4% PFA, dehydrated, embedded in paraffin, and […] sections double stained for BrDU and insulin for the measurement of beta-cell proliferation rate.
Insulin was stained with guinea pig anti-insulin, peroxidase-coupled rabbit anti-guinea pig Ig, and developed with AEC to give a red stain. BrDU was stained by monoclonal mouse anti-BrDU, biotinylated goat anti-mouse Ig, avidin peroxidase, and developed with DAB and CuSO4 to give a dark brown stain. BrDU stained nuclei of cells with insulin stained cytoplasm was examined in more than 1500 cells per section. The examination of the sections were carried out with the origin of the sections blinded to the observer.

Substance: Arg^34, Lys^26(N-ε-(γ-Glu(N-α-hexadecanoyl)))-GLP-1(7-37)
- number of labelled beta cells ([1]; 5 μM, 2 days in culture): 1.4%
- blood glucose levels during a normal 24-hour feeding schedule ([2]; group B (low dose), 30 μg/kg subcutaneously bi-daily, after 10 days of dosing): hyperglycemic
- blood glucose levels during a normal 24-hour feeding schedule, compared to initial measurements ([2]; group C, 150 μg/kg subcutaneously bi-daily, after 10 days of dosing): unchanged compared to the initial measurements
- blood glucose levels during a normal 24-hour feeding schedule, compared to vehicle- and low-dose-treated animals ([2]; group C, 150 μg/kg subcutaneously bi-daily, after 10 days, total area under the curve, p<0.0002 by ANOVA): significantly lower
- beta-cell fraction of the total pancreas, compared to vehicle treated rats (beta-cells of ZDF rats [3]; 30 ng/g for 6 weeks): significantly higher
- beta-cell fraction of the total pancreas (beta-cells of ZDF rats [3]; 150 ng/g, compared to 30 ng/g): no further increase
- glycemic level in oral glucose tolerance test, compared to groups A and B [4]: significantly lower
- fraction of beta-cells that had incorporated BrDU (beta-cells of ZDF rats [5]): dose dependent increase

Substance: GLP-1: The term GLP-1 means GLP-1(7-37) or GLP-1(7-36) amide [reference compound]
- number of labelled beta cells ([1]; 100 nM GLP-1, 2 days in culture): 1.7%
- number of labelled beta cells (in words) ([1]; BrdU incorporation into DNA in insulin positive cells, newborn rat islet cells): increase the number of labelled beta cells

Substance: hGH: human growth hormone (hGH) (Norditropin, Novo Nordisk)
- number of labelled beta cells ([1]; 200 ng/ml hGH, 2 days in culture): 3.5%
